Test results published in patent publication US8410289B2, “Spirocyclic 3'-alkoxytetramic acids and-tetronic acids” (Bayer Cropscience AG, priority 2004, dated 2013).

Assay: log P determination by HPLC on reverse-phase column (C 18), EEC-Directive 79/831 Annex V.A8
Assay type: physicochemical
Conditions: for chromatographic logP: reverse-phase HPLC column (C 18), HPLC, reverse-phase column (C 18), 43° C.
Protocol: • The log P values given in the tables and preparation examples above are determined in accordance with EEC-Directive 79/831 Annex V.A8 by HPLC (High Performance Liquid Chromatography) on a reverse-phase column (C 18). Temperature: 43° C.
The determination is carried out in the acidic range at pH 2.3 using the mobile phases 0.1% aqueous phosphoric acid and acetonitrile; linear gradient from 10% acetonitrile to 95% acetonitrile.
The LC-MS determination in the acidic range is carried out at pH 2.7 using the mobile phases 0.1% aqueous formic acid and acetonitrile (contains 0.1% formic acid); linear gradient from […] acetonitrile to 95% acetonitrile.
The LC-MS determination in the neutral range is carried out at pH 7.8 using the mobile phases 0.001 molar aqueous ammonium bicarbonate solution and acetonitrile; linear gradient from 10% acetonitrile to 95% acetonitrile.
The calibration is carried out using unbranched alkan-2-ones (with 3 to 16 carbon atoms) with known log P values (determination of the log P values by retention times using linear interpolation between two successive alkanones).

[1] = compounds of formula (I-2-a); generally isomer mixtures; those marked 1) were separated into cis and trans diastereomers
[2] = compounds of formula (I-2-b), isomer (cis, trans or α + β about 1:1), two values for α + β mixtures

Structure (SMILES)	logP [1]	also measured
COC1CCCC2(C1)OC(=O)C(c1cc(-c3ccc(Cl)cc3)c(C)cc1C)=C2O (mixture of isomers) [Example I-2-a-2]	3.4	
CCc1cc(Br)cc(CC)c1C1=C(O)C2(CCCC(OC)C2)OC1=O (mixture of isomers) [Example I-2-a-3]	2.98	
COC1CCCC2(C1)OC(=O)C(c1c(C)cc(Cl)cc1Br)=C2O (mixture of isomers) [Example I-2-a-4]	2.46	
COC1CCCC2(C1)OC(=O)C(c1cc(C)ccc1C)=C2O (mixture of isomers) [Example I-2-a-35]	2.15	
COC1CCCC2(C1)OC(=O)C(c1ccc(Cl)cc1Br)=C2O (mixture of isomers) [Example I-2-a-36]	2.25	
COC1CCCC2(C1)OC(=O)C(c1ccc(Br)cc1Cl)=C2O (mixture of isomers) [Example I-2-a-37]	2.31	
COC1CCCC2(C1)OC(=O)C(c1ccc(Cl)cc1Cl)=C2O (mixture of isomers) [Example I-2-a-39]	2.21	
COC1CCCC2(C1)OC(=O)C(c1c(C)ccc(-c3ccc(Cl)cc3)c1C)=C2O (mixture of isomers) [Example I-2-a-42]	3.29	
COC1CCCC2(C1)OC(=O)C(c1cc(F)c(C)cc1C)=C2O (mixture of isomers) [Example I-2-a-45]	2.25	
COC1CCCC2(C1)OC(=O)C(c1c(C)ccc(Cl)c1C)=C2O (mixture of isomers) [Example I-2-a-46]	2.42	
COC1CCCC2(C1)OC(=O)C(c1c(C)cc(Br)c(C)c1Br)=C2O (mixture of isomers) [Example I-2-a-47]	2.78	
COC1CCCC2(C1)OC(=O)C(c1cc(C)ccc1Br)=C2O (mixture of isomers) [Example I-2-a-49]	2.16	
COc1ccc(C2=C(O)C3(CCCC(OC)C3)OC2=O)c(C)c1 (mixture of isomers) [Example I-2-a-50]	2.21	
COC1CCCC2(C1)OC(=O)C(c1c(Cl)ccc(C)c1Cl)=C2O (mixture of isomers) [Example I-2-a-52]	2.23	
COC1CCCC2(C1)OC(=O)C(c1c(C)cc(C)c(-c3ccc(Cl)cc3)c1C)=C2O (mixture of isomers) [I-2-a-30]	3.60	
COC1CCCC2(C1)OC(=O)C(c1ccccc1Cl)=C2O (mixture of isomers) [I-2-a-38]	1.86	
COC1CCCC2(C1)OC(=O)C(c1cc(Cl)c(Br)cc1Cl)=C2O (mixture of isomers) [I-2-a-40]	2.53	
COC1CCCC2(C1)OC(=O)C(c1c(C)cc(C)c(Br)c1C)=C2O (mixture of isomers) [I-2-a-41]	2.70	
COC1CCCC2(C1)OC(=O)C(c1cc(C)c(Cl)cc1C)=C2O (mixture of isomers) [I-2-a-43]	2.47	
COC1CCCC2(C1)OC(=O)C(c1cc(F)c(C)cc1Br)=C2O (mixture of isomers) [I-2-a-44]	2.25	
COC1CCCC2(C1)OC(=O)C(c1cc(Cl)c(C)cc1Cl)=C2O (mixture of isomers) [I-2-a-48]	2.47	
COC1CCCC2(C1)OC(=O)C(c1cc(Br)ccc1Br)=C2O (mixture of isomers) [I-2-a-51]	2.27	
COC1CCCC2(C1)OC(=O)C(c1ccc(Cl)cc1C)=C2O (single isomer, unassigned) [Example I-2-a-6]	2.19	
COC1CCCC2(C1)OC(=O)C(c1ccc(Cl)cc1C)=C2O (single isomer, unassigned) [Example I-2-a-8]	2.11	
COC1CCCC2(C1)OC(=O)C(c1c(C)cc(C)cc1C)=C2O (single isomer, unassigned) [Example I-2-a-14]	2.31^1)	
COc1cc(C)cc(C)c1C1=C(O)C2(CCCC(OC)C2)OC1=O (single isomer, unassigned) [Example I-2-a-16]	2.10^1)	
COC1CCCC2(C1)OC(=O)C(c1cc(-c3ccc(Cl)cc3)ccc1C)=C2O (single isomer, unassigned) [Example I-2-a-32]	3.19^1)	

Structure (SMILES)	logP [1]	also measured
CCc1cc(C)cc(Br)c1CC(=O)NC1(C(=O)OC)CCCC(OCCOC)C1 (single isomer, unassigned) [II-28]		log P (compounds of formula (II), two values where an α/β isomer mixture is given): log P 3.64
CCCCOC1CCCC2(C1)OC(=O)C(c1c(C)cc(C)cc1C)=C2O (centres unmarked) [Example I-2-a-1]		chromatographic logP: 3.57
COC1CCCC2(C1)OC(=O)C(c1c(Cl)cc(C)cc1Br)=C2O (centres unmarked) [Example I-2-a-5]	2.40	
COC1CCCC2(C1)OC(=O)C(c1ccccc1C)=C2O (centres unmarked) [Example I-2-a-7]	1.81	
COC1CCCC2(C1)OC(=O)C(c1cc(C)c(C)cc1Br)=C2O (centres unmarked) [Example I-2-a-9]	2.35	
COC1CCCC2(C1)OC(=O)C(c1c(C)cc(Br)cc1C)=C2O (centres unmarked) [Example I-2-a-10]	2.40	
COC1CCCC2(C1)OC(=O)C(c1cc(C)c(C)cc1C)=C2O (centres unmarked) [Example I-2-a-11]	2.21	
COC1CCCC2(C1)OC(=O)C(c1c(C)cc(C)c(C)c1C)=C2O (centres unmarked) [Example I-2-a-12]	2.50	
CCc1cc(Br)cc(C)c1C1=C(O)C2(CCCC(OC)C2)OC1=O (centres unmarked) [Example I-2-a-13]	2.74	
COC1CCCC2(C1)OC(=O)C(c1c(Cl)cccc1Cl)=C2O (centres unmarked) [Example I-2-a-15]	1.93	
CCOC1CCCC2(C1)OC(=O)C(c1c(C)cc(-c3ccc(Cl)cc3)cc1CC)=C2O (centres unmarked) [Example I-2-a-17]	4.19	
COC1CCCC2(C1)OC(=O)C(c1cc(C)c(Br)cc1Br)=C2O (centres unmarked) [Example I-2-a-18]	2.58	
COC1CCCC2(C1)OC(=O)C(c1c(C)cc(Cl)cc1Cl)=C2O (centres unmarked) [Example I-2-a-20]	2.41	
COC1CCCC2(C1)OC(=O)C(c1c(Cl)cc(C)cc1Cl)=C2O (centres unmarked) [Example I-2-a-21]	2.27	
COC1CCCC2(C1)OC(=O)C(c1ccc(C)cc1Cl)=C2O (centres unmarked) [Example I-2-a-22]	2.13	
CCc1cc(Br)cc(Br)c1C1=C(O)C2(CCCC(OC)C2)OC1=O (centres unmarked) [Example I-2-a-26]	2.77	
COC1CCCC2(C1)OC(=O)C(c1c(C)cc(C)cc1Cl)=C2O (centres unmarked) [Example I-2-a-27]	2.31	
COC1CCCC2(C1)OC(=O)C(c1c(C)cc(C)cc1Br)=C2O (centres unmarked) [Example I-2-a-28]	2.36	
CCc1cc(Cl)c(C2=C(O)C3(CCCC(OC)C3)OC2=O)c(Br)c1 (centres unmarked) [Example I-2-a-29]	2.62	
COC1CCCC2(C1)OC(=O)C(c1cc(-c3ccc(Cl)cc3)ccc1Cl)=C2O (centres unmarked) [Example I-2-a-31]	3.14	
COC1CCCC2(C1)OC(=O)C(c1cc(-c3cccc(Cl)c3)ccc1C)=C2O (centres unmarked) [Example I-2-a-33]	3.16	
COC1CCCC2(C1)OC(=O)C(c1cc(-c3cccc(Cl)c3)ccc1Cl)=C2O (centres unmarked) [Example I-2-a-34]	3.11	
COC1CCCC2(C1)OC(=O)C(c1c(C)cc(C)c(F)c1C)=C2O (centres unmarked) [Example I-2-a-54]	2.45	
CO[C@H]1CCC[C@]2(C1)OC(=O)C(c1cc(-c3ccc(Cl)cc3)c(C)cc1C)=C2OC(=O)C(C)C [Example I-2-b-1]		chromatographic logP: 5.37
COC1CCCC2(C1)OC(=O)C(c1cc(-c3ccc(Cl)cc3)c(C)cc1C)=C2OC(=O)C(C)C (centres unmarked) [Example I-2-b-2]		logP [2]: 5.25
COC1CCCC2(C1)OC(=O)C(c1c(C)cc(C)cc1C)=C2OC(=O)C(C)C (centres unmarked) [Example I-2-b-3]		logP [2]: 4.32
